From the supplement of paper PMC10307832

Key:
Assay in all cases: relative viability (nuclei count vs DMSO), 5 days (fraction); higher = more cells survive
[1] = compound: NC(=O)c1ccc(N(C(N)=O)c2c(F)cccc2F)nc1-c1ccc(F)cc1F [VX-702] + CCNC(=O)c1noc(-c2cc(C(C)C)c(O)cc2O)c1-c1ccc(CN2CCOCC2)cc1 [Luminespib] (partner 0.01 µM)
Summary of the method: (§1)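 Nuclei were stained with Hoechst during a one-step fixation (final 0.05% Triton X-100, 1% formaldehyde, 1 ug/ml Hoechst) carried out 5 days after dosing, then counted on 4× images. The cells, lung cancer lines in 1536-well plates, had been dosed by pin tool the day after seeding with one drug alone or a fixed anchor-drug dose plus five library-drug doses (not always all listed) in √10 steps. Relative viability is the nuclei count in treated wells divided by that in vehicle wells, and each value is the median of duplicate plates.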

[2] = compound: NC(=O)c1ccc(N(C(N)=O)c2c(F)cccc2F)nc1-c1ccc(F)cc1F [VX-702] + Cc1nc(Nc2ncc(C(=O)Nc3c(C)cccc3Cl)s2)cc(N2CCN(CCO)CC2)n1 [Dasatinib] (partner 0.075 µM)
Summary of the method: as §1

[3] = compound: CC(C)(C)c1nc(-c2cccc(NS(=O)(=O)c3c(F)cccc3F)c2F)c(-c2ccnc(N)n2)s1 [Dabrafenib] + CC1(C)CCC(c2ccc(Cl)cc2)=C(CN2CCN(c3ccc(C(=O)NS(=O)(=O)c4ccc(N[C@H](CCN5CCOCC5)CSc5ccccc5)c(S(=O)(=O)C(F)(F)F)c4)cc3)CC2)C1 [Navitoclax] (partner 0.5 µM)
Summary of the method: as §1

[4] = compound: CC(C)(C)c1nc(-c2cccc(NS(=O)(=O)c3c(F)cccc3F)c2F)c(-c2ccnc(N)n2)s1 [Dabrafenib] + CS(=O)(=O)CCNCc1ccc(-c2ccc3ncnc(Nc4ccc(OCc5cccc(F)c5)c(Cl)c4)c3c2)o1 [Lapatinib] (partner 2 µM)
Summary of the method: as §1

Cell Line	relative viability ([1]; first compound 0.02 µM)	relative viability ([1]; first compound 0.2 µM)	relative viability ([1]; first compound 0.6325 µM)	relative viability ([1]; first compound 2 µM)	relative viability ([2]; first compound 0.02 µM)	relative viability ([2]; first compound 0.2 µM)	relative viability ([2]; first compound 0.6325 µM)	relative viability ([2]; first compound 2 µM)	relative viability ([3]; first compound 0.009487 µM)	relative viability ([3]; first compound 0.09487 µM)	relative viability ([3]; first compound 0.3 µM)	relative viability ([4]; first compound 0.009487 µM)	relative viability ([4]; first compound 0.09487 µM)	relative viability ([4]; first compound 0.3 µM)	relative viability ([3]; first compound 0.03 µM)	relative viability ([4]; first compound 0.03 µM)	relative viability ([3]; first compound 0.003 µM)	relative viability ([4]; first compound 0.003 µM)
NCI-H322M	0.856	0.917	0.759	0.88	0.241	0.265	0.247	0.249	1.38	1.12	1.17	0.657	0.584	0.559				
HCC-366					0.786	0.601	0.598	0.22	1.02	1.05	1.11	1.08	1.05	1.2	0.963	0.776		
NCI-H1355	0.72	0.632	0.729	0.76	0.883	0.679	0.683	0.818	1.01		1.07	1.11		1.19	0.894	1.03		
LC-2-ad	0.979	1.01	1.01	1.36	0.724	0.581	0.619	0.901	0.425	0.417	0.438	1.01	0.886	0.925	0.381	0.976	0.558	0.862
NCI-H2087	0.162	0.141	0.169	0.138	0.953	0.856	0.959	0.967	0.881	0.842	0.892	1.08	0.77	0.785	0.893	0.769	0.947	0.689
BEN	0.374	0.221	0.49	0.331	0.337	0.255	0.317	0.304	0.0803	0.0599	0.0801	0.805	0.81	0.841				
NCI-H2228	0.101	0.144	0.145	0.124	0.466	0.499	0.461	0.535	0.953	0.854	0.757	1.2	1.01	1.14	0.693	1.01	0.543	0.856
HCC-827	0.449	0.638	0.504	0.273	0.274	0.342	0.271	0.145	1.02	1.01	1.01	0.228	0.185	0.186	0.97	0.185	0.997	0.133
IA-LM									0.657	0.304	0.172	0.7	0.689	0.464	0.649	0.835	0.901	0.774
NCI-H522	0.868	1.11	1.26	1.2	0.978	0.7	0.83	0.984										
H3255	1.09	0.803	0.957	1.11	0.312	0.301	0.44	0.409	0.669	0.441	0.566	0.264	0.316	0.247	0.548	0.213	0.375	0.186
NCI-H838	0.332	0.333	0.273	0.299	0.348	0.285	0.304	0.339	1.29	1.11	1.28	1.17	0.855	1.1	1.13	0.871	1.22	0.816
NCI-H1993	0.645	0.741	0.777	0.818	0.512	0.611	0.615	0.59	1.04	1.08	1.17	0.729	0.713	0.882	0.902	0.754	0.834	0.696
SK-MES-1	0.839	0.711	0.673	0.822	0.374	0.389	0.342	0.398	1.22	1.04	1.17	0.546	0.506	0.598	1.2	0.525	1.22	0.418
NCI-H661	0.905	0.919	0.995	1.06	0.841	0.811	0.995	1.06				0.486	0.458	0.455		0.364		0.471
NCI-H1650	0.19	0.193	0.216	0.226	0.385	0.346	0.334	0.265	1.44	1.35	1.42	1.12	0.953	1.11	1.21	0.639	1.25	0.632
ABC-1	0.518	0.48	0.567	0.894	0.666	0.535	0.573	0.562				1.24	1.2	1.05		1.3		1.14
LU99A	0.27	0.204	0.267	0.189	0.427	0.415	0.522	0.402	0.722	0.896	0.753	0.971	0.852	0.751	0.792	0.994	0.928	0.974
ChaGo-K-1	0.657	0.46	0.586	0.678	0.769	0.584	0.622	0.614	0.891	0.986	1.06				0.966			
NCI-H2170	0.413	0.638	0.52	0.804	0.532	0.654	0.544	0.74	0.704	0.641	0.594	0.265	0.291	0.311	0.463	0.268	0.702	0.263
NCI-H2347	0.446		0.909	0.552	0.325		0.277	0.294	0.92	0.766	0.752	1.02	0.897	0.89	0.733	0.918	0.536	0.631
NCI-H1437	1.17	1.14	1.14	1.4	0.407	0.34	0.439	0.467	1.02	1.07	1.1	0.756	0.785	0.816	1.14	0.911	1.14	0.687

Cell Line	relative viability ([1]; first compound 0.02 µM)	relative viability ([1]; first compound 0.2 µM)	relative viability ([1]; first compound 0.6325 µM)	relative viability ([1]; first compound 2 µM)	relative viability ([2]; first compound 0.02 µM)	relative viability ([2]; first compound 0.2 µM)	relative viability ([2]; first compound 0.6325 µM)	relative viability ([2]; first compound 2 µM)	relative viability ([3]; first compound 0.009487 µM)	relative viability ([3]; first compound 0.09487 µM)	relative viability ([3]; first compound 0.3 µM)	relative viability ([4]; first compound 0.009487 µM)	relative viability ([4]; first compound 0.09487 µM)	relative viability ([4]; first compound 0.3 µM)	relative viability ([3]; first compound 0.03 µM)	relative viability ([4]; first compound 0.03 µM)	relative viability ([3]; first compound 0.003 µM)	relative viability ([4]; first compound 0.003 µM)
CAL-12T	0.565	0.574	0.318	0.363	0.409	0.539	0.273	0.463	1.32	1.3	1.27	0.74	0.639	0.789	1.4	0.683	1.28	0.709
NCI-H1651	0.979	0.891	0.921	1.08	0.395	0.456	0.359	0.544	1.03	1.01	1.03	0.818	0.938	0.834	0.997	0.84	1.15	0.849
RERF-LC-KJ	1.19	1.2	1.12	1.67	0.837	0.781	0.87	0.901	1.21		1.15	0.9	0.907	1.04	0.902	0.893	1.21	0.851
EKVX	0.899	0.822	0.878	0.942	0.62	0.491	0.527	0.436	1.01	0.894	1.11	0.245	0.203	0.321	0.961	0.192	0.778	0.172
EMC-BAC-2	1.13	1.13	1.13	1.23	0.182	0.331	0.332	0.275	1.19	1.1	1.19	0.775	0.926	0.916	0.998	0.877	1.27	0.87
PC-3 [JPC-3]	0.636	0.695	0.686	0.668	1.03	1.05	1.07	1.06	0.829	0.781	0.788	0.509	0.434	0.429	0.822	0.416	0.85	0.448
HCC-78					0.449	0.338	0.351	0.356	0.908	0.795	0.869	0.697	0.754	0.838	0.702	0.702		
NCI-H647	0.216	0.478	0.143	0.17	0.151	0.171	0.211	0.246	1.07	1.08	1.11	1.24	1.01	0.893		0.812		
NCI-H1666	0.954		1.07	1.01	0.765		0.876	0.641		0.863	0.998		0.629	0.745	1.1	0.623	0.929	0.547
HCC-44	0.84	0.983	0.909	1.48					1.04	0.843	1.04	0.982	0.86	0.964	0.939	1.11	0.939	0.996
NCI-H1623	0.469	0.496	0.477	0.465	0.515	0.453	0.422	0.5										
NCI-H358	0.245	0.416	0.583	0.4	0.146	0.144	0.156	0.16				0.53	0.446	0.465		0.369		
NCI-H650	0.661		0.78	0.961	0.481		0.534	0.533				1.1	0.514	0.435		0.623		
Calu-6									0.799	0.604	0.587	1.03	0.848	0.886	0.77	0.911	0.83	1.18
LCLC-103H	0.975	0.888	1	0.986	0.487	0.403	0.504	0.507										
NCI-H441	0.368	0.326	0.271	0.411	0.633	0.565	0.627	0.697	0.547	0.543	0.465				0.461			
NCI-H2342	0.66	0.848	0.72	0.821	0.327	0.335	0.348	0.329										
A549									1.26	1.18	1.2	1.06	1	1.04	1.28	1.07	1.09	0.899
NCI-H1563	0.528	0.506	0.509	0.479	0.395	0.445	0.416	0.451				1.06	0.928	0.938		0.633		0.831
NCI-H1299									1.02	1.01	1.01	0.952	0.932	0.824	1.06	0.957	0.997	1.01
NCI-H1703									1.41	0.951	1.09	1.6	0.896	1.09	1.6	0.938	1.33	1.2
EBC-1									0.373	0.145	0.221	0.233	0.23	0.274	0.32	0.223	0.369	
